According to patent publication US20230183179A1, “NOVEL CELL METABOLISM MODULATING COMPOUNDS AND USES THEREOF” (CRESCENTA BIOSCIENCES, priority 2020, published 2023):

Key:
[1] = test system: differentiated 3T3-L1 mouse adipocyte cells; test: Adipocyte glucose consumption in differentiated 3T3-L1 cells (colorimetric glucose assay of the medium); type: cell-based; details: 3T3-L1, 24 h, compound 10 μM, loss of glucose from culture medium, mean fold change (compound/DMSO)
Outline: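 Differentiated 3T3-L1 mouse adipocytes (rosiglitazone/dexamethasone/IBMX/insulin induction, day 11) treated 24 h with compounds at 10 μM, 0.1% DMSO final. Medium glucose measured colorimetrically; consumption taken as glucose loss from medium versus cell-free control, expressed as mean fold change compound/DMSO ±SD.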

[2] = target: T1, His6 tagged human recombinant FABP4 (Homo sapiens, UniProt P15090); test: FABP4 TR-FRET assay: displacement of fluorescent fatty acid BODIPY FL C12; details: inhibition of BODIPY FL C12 binding to His6-FABP4; 1.2 μL of 1.085 mM compound in DMSO per well; triplicates, mean percent inhibition
T1 construct: purchased Cayman Chemicals 10009549
Outline: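 TR-FRET displacement of BODIPY FL C12 from His6-FABP4 bound by Tb-anti-His6 antibody, in Tris pH 7.4 buffer with γ-globulins, NP-40 and DTT; compound stock 1.085 mM in DMSO. Read after 10 min at room temperature as 520/615 nm ratio; mean % inhibition versus DMSO from triplicates.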

T1 sequence (P15090 whole entry): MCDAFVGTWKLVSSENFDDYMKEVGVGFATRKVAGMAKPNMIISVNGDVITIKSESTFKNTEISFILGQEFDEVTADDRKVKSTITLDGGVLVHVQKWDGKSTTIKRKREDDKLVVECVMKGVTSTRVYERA

SMILES	fold induction at 10 µM [1]	inhibition at 1085 µM (stock) [2] [%]
CN(CC(=O)O)c1cc(-c2ccccc2)c2cc(CCc3nc4ccccc4o3)ccc2n1 [2-({6-[2-(1,3-benzoxazol-2-yl)ethyl]-4-phenylquinolin-2-yl}(methyl)amino)acetic acid]	1.23	27.4
CCCCCCCc1ccc2nc(N(C)CC(=O)O)cc(-c3ccc(F)cc3)c2c1 [2-([4-(4-fluorophenyl)-6-heptylquinolin-2-yl](methyl)amino}acetic acid]	1.25	75.6
CN(CC(=O)O)c1cc(-c2ccccc2)c2cc(CCc3ccncc3)ccc2n1 [2-[methyl({4-phenyl-6-[2-(pyridin-4-yl)ethyl]quinolin-2-yl})amino]acetic acid]	1.26	< 0
CCCCc1ccc2nc(N(C)CC(=O)O)cc(-c3ccccc3O)c2c1 [2-{[6-butyl-4-(2-hydroxyphenyl)quinolin-2-yl](methyl)amino}acetic acid]	1.19	93.2
CCCCCc1ccc2nc(N(C)CC(=O)O)cc(-c3cccc(C#N)c3)c2c1 [2-{[4-(3-cyanophenyl)-6-pentylquinolin-2-yl](methyl)amino}acetic acid]	1.23	65.1
CN(CC(=O)O)c1cc(-c2ccccc2)c2cc(CCc3ccnc4[nH]ccc34)ccc2n1 [2-{methyl[4-phenyl-6-(2-{1H-pyrrolo[2,3-b]pyridin-4-yl}ethyl)quinolin-2-yl]amino}acetic acid]	1.26	29.8
